Format in all cases: cell-based, human
Assay [1] concerns A549. Description: sci-Plex of pracinostat co-treatment with acetyl-CoA precursors or enzyme inhibitors. The settings on record: 24 hours. From the text:
(§1) To validate this further, we sought to shift the distribution of cells along the HDAC inhibitor trajectory by modulating cellular acetyl-CoA levels. We treated A549 and MCF7 cells with pracinostat in the presence and absence of acetyl-CoA precursors (acetate, pyruvate, or citrate) or inhibitors of enzymes (ACLY, ACSS2, or PDH) involved in replenishing acetyl-CoA pools. After treatment, cells were harvested and processed using sci-Plex and trajectories constructed for each cell line (FIGS. 39 and 40).
(§2) For 96-well experiments, adherent cells were trypsinized, washed with PBS and plated in tissue culture treated 96 well flat bottom plates (Thermo Fisher Scientific, cat no. 12-656-66) at 25,000 cells per well in 100 μL of media. Suspension cells were washed with PBS and plated in 96 well V-bottom tissue culture plates (Thermo Fisher Scientific, cat no. 549935) at 25,000 cells per well in 100 μL of media. Cells were allowed to recover for 24 hours before treatment with 1 μL of a 1:10 dilution of the appropriate compound or vehicle in PBS to maintain a vehicle concentration of 0.1% for all wells. Cells were then exposed to small molecules at the specified concentration for either 24 or 72 hours. For experiments where cells were co-treated with HDAC inhibitors and either acetate, pyruvate, citrate, ACSS2 inhibitor (EMD Millipore Inc., Cat No. 533756), ACLY inhibitor (Cayman Chemicals, BMS-303141 Cat No. 943962-47-8) or PDH inhibitor (Cayman Chemicals, Cat No. 504817), cells were treated 24 hours after plating and harvested after 24 hours. In this set of experiments, all wells contained a final concentration of 0.2% DMSO to match treatment with both the HDAC inhibitor and inhibitors of metabolic processes.
(§3) Gene expression profiles were visualized with Monocle 3, which uses UMAP to project them into a two or three dimensional space. Briefly, Monocle 3 first calculates size factors for every cell. Size factors were calculated as the log UMI counts observed in a single cell divided by the geometric mean of log UMI counts from all measured cells. After scaling each nucleus' UMI counts by its library size factor, Monocle3 adds a pseudocount of 1, and log transforms the counts. Next, these log-transformed profiles are projected onto the top 25 principal components. These PCA coordinates were transformed by Monocle 3 (using an approach similar to the removeBatchEffect( ) function in the limma package (42)) according to the model ‘˜log(UMIs)+replicate’ (FIG. 9) or ‘log(UMIs)+viability+proliferation index+replicate’. Adjusted PCA coordinates for each cell are used to initialize UMAP. Unless otherwise noted, UMAP was run with the following parameters: 50 nearest neighbors, min_dist=0.1, inter-cell distance assessed by cosine similarity. UMAP projection of cells after dual HDAC inhibition and acetyl-COA precursor supplementation or acetyl-CoA generating enzyme inhibition was performed as described with the exception that PCA initialization was performed on the top 1000 most overdispersed genes. Louvain community detection was then performed on this UMAP space using the python package ‘louvain’. Trajectory reconstruction was then performed as described in (21).

The subject of a further assay is MCF7. The assay is described as above. The settings on record: 24 hours.
From the text: as §1, §2, §3

Assay [2] relates to lung adenocarcinoma-derived (A549) cells. Put plainly: sciPlex-ATAC-seq chemical screen (single-cell chromatin accessibility). As to conditions: A549, 24 hours. The method, then:
Each well of a 96-well culture dish was treated for 24 hours with Nutlin-3A (p53 agonist), SAHA (broad spectrum histone deacetylase inhibitor), BMS345541 (NF-kB inhibitor), Dexamethasone (glucocorticoid receptor agonist) or a vehicle control. Moreover, we varied the dose of drug added to each well, such that the effects of each compound could be evaluated at seven different concentrations. Finally, all treatments were performed in biological triplicate (FIG. 42A). After applying unique labels to each well, cells from all conditions were pooled for parallel preparation of single cell accessible chromatin profiles.
Adherent cells grown in 96 well format were prepared by first aspirating the existing media. 50 µL of TrypLE (Termo-Fisher) was then added per well and the plate was incubated at 37 C for 15 minutes for A549. After incubation, 1504 of 1×DMEM (Gibco)+10% FBS (Gibco) was added to quench the TrypLE reaction. The 2004 volume cell suspension in each well was then transferred into a V-bottom 96 well plate, preserving the well orientations. Cells were then spun for 5 minutes at 300 g to pellet cells before aspirating media. Cell pellets were washed with 100 μL 1×DPBS and then pelleted at 300 g for 5 minutes. […]
Pooled, hash-labeled nuclei were thawed on ice, inspected for nuclei integrity, counted and further adjusted to 2.5 million nuclei/mL if necessary. […]

Assay [3] relates to A549. Description: sci-Plex of A549 cells treated for 72 hours with one of 48 compounds. The settings on record: A549, 72 hours. The method, then: Such heterogeneity could be explained by cells executing a defined transcriptional program asynchronously, with the dose of drug that the cells are exposed to modulating the rates of their progression through it. To test this hypothesis, we sequenced the transcriptomes of 64,440 A549 cells that were treated for 72 hours with one of 48 compounds, including many of the HDAC inhibitors from the large sci-Plex screen.
For 96-well experiments, adherent cells were trypsinized, washed with PBS and plated in tissue culture treated 96 well flat bottom plates (Thermo Fisher Scientific, cat no. 12-656-66) at 25,000 cells per well in 100 μL of media. Suspension cells were washed with PBS and plated in 96 well V-bottom tissue culture plates (Thermo Fisher Scientific, cat no. 549935) at 25,000 cells per well in 100 μL of media. Cells were allowed to recover for 24 hours before treatment with 1 μL of a 1:10 dilution of the appropriate compound or vehicle in PBS to maintain a vehicle concentration of 0.1% for all wells. […]
To organize cells treated with HDAC inhibitors into a trajectory cells were sampled to equalize the number of cells represented between the three cell lines or between treatments at 24 and 72 hrs. […] All other cells' pseudodoses was measured as the geodesic distance between their nearest principal graph node to an origin node.

The subject of assay [4] is A549, MCF7 and K562 cells. Put plainly: flow cytometry of total cellular acetylated lysines. Also noted: dose or concentration left out as unconfirmed. The settings on record: 24 hours. The method, then: A549 and MCF7 cells were seeded in 6 cm dishes at 1.6×10^6 cells per plate. K562 cells were seeded in T25 cm2 flasks at 1.6×10^6 cells per flask. […] After treatment cells were harvested as described above, pellets washed twice in PBS, resuspended in 500 μL of cold PBS and fixed by the addition of 5 mL of ice-cold ethanol while vortexing at low speed. Cells were stored at −20 C prior to processing for flow cytometry analysis. For flow cytometry, ethanol was removed and fixed cells washed twice with PBS containing 1% BSA (PBS-B) and blocked for 1 hour at room temperature. Then, blocking buffer was removed and cells were incubated in PBS containing 1% BSA and 0.1% tryton X-100 (PBS-BT) as well as a 1:500 dilution of mouse anti-acetyl-lysine antibody (cat no. ICP0390, ImmuneChem Pharmaceuticals Inc) for 2 hours at room temperature. After incubation, cells were washed twice with PBS-BT and incubated with goat anti-mouse Alexa-647 in PBS-BT for 1 hour at room temperature. Lastly, cells were washed twice with PBS-BT, once with PBS-B and resuspended in PBS-B containing 5 μg/ml Hoechst 33258 (Life Sciences Technologies) to stain the DNA. Then the levels of total acetylated-lysine and DNA content was analyzed by flow cytometry on an LSRII flow cytometer (BD Biosciences). Quantification and downstream analysis was performed using FlowJo10 (FlowJo.LLC).
For orientation: Flow cytometry measures light scatter and fluorescence of single cells or particles in a stream.

The subject of assay [5] is A549. Put plainly: large-scale sci-Plex screen (sci-RNA-seq3) of 188 compounds. The settings on record: A549, 24 hours; for distinct transcriptional states induced by the same drug (focal enrichments in UMAP): cells from all four doses.
Method: We exposed three well-characterized human cancer cell lines, A549 (lung adenocarcinoma), K562 (chronic myelogenous leukemia), and MCF7 (mammary adenocarcinoma), to each of these 188 compounds at four doses (10 nM, 100 nM, 1 mM, and 10 mM) in duplicate, randomizing compounds and doses across well positions in replicate culture plates (data not shown). These conditions, together with vehicle controls, accounted for 4608 of 4992 independently treated cell populations in this experiment. After treatment, we lysed cells to expose nuclei, hashed them with a specific combination of two oligos (FIG. 10A), and performed sci-RNA-seq3 (21).
Lysis was conducted in the 96 well V-bottom plate. […] For the large compound screen, 500 femtomoles of an additional oligo was used to uniquely index each 96 well treatment plate. After lysis with 3 strokes of multichannel pipette, cells were fixed by addition of 200 μL of fixation buffer (5% Paraformaldehyde, 1.25×PBS). Nuclei were then fixed on ice for 15 minutes before pooling into a trough. Nuclei were pooled by plate into a 50 mL conical tube and pelleted by centrifugation at 500×g for 5 minutes. Subsequently, cells were resuspended in 500 μL of nuclei suspension buffer (NSB; (10 mM Tris-HCl, pH 7.4, 10 mM NaCl, 3 mM MgCl2, 1% Superase RNA Inhibitor, 1% 0.2 mg/mL Ultrapure BSA)). Finally, nuclei from all plates were pooled into a single conical tube and nuclei were pelleted by centrifugation at 500×g for 5 minutes. Nuclei were then resuspended in 1 mL of NSB and flash frozen into liquid nitrogen in 100 μL aliquots. Nuclei were then stored at −80 C until further processing with sci-RNA-seq.
The subject of assay [6] is A549. Put plainly: pilot sci-Plex experiment (sci-RNA-seq2), four compounds. The settings on record: A549, 24 hours, seven doses.
Method: We exposed A549, a human lung adenocarcinoma cell line, to one of four compounds: dexamethasone (a corticosteroid agonist), nutlin-3a (a p53-Mdm2 antagonist), BMS-345541 (an inhibitor of nuclear factor kB-dependent transcription), or vorinostat [suberoylanilide hydroxamic acid (SAHA), an HDAC inhibitor], for 24 hours across seven doses in triplicate for a total of 84 drug-dose-replicate combinations and additional vehicle controls (FIG. 6A and FIG. 7A). We labeled nuclei from each well and subjected them to sci-RNA-seq2 (FIG. 7, B to D, and Table 1).
To quantify the “population average” transcriptional response of A549 cells to each of the four drugs, we modeled each gene's expression as a function of dose through generalized linear regression. […] Additionally, we evaluated whether the number of cells recovered at each concentration could be used to infer toxicity akin to traditional screens.

Regarding `COc1ccc(-c2ccccc2)cc1NS(=O)(=O)c1cc(Cl)cc(Cl)c1O` [ACLY inhibitor], the “shift of pracinostat treated cells along the HDAC inhibitor trajectory” value in the assay on A549 [1] was “no such shift was observed”; with MCF7, “shifted cells farther along the HDAC inhibitor trajectory”.
For `COCCNC(=O)Nc1ccc2nc(-c3cccs3)c(-c3cccs3)nc2c1` [ACSS2 inhibitor] the same measures were “no such shift was observed” and “shifted cells farther along the HDAC inhibitor trajectory”.
On to `O=C(CCCCCCC(=O)Nc1ccccc1)NO` [SAHA, suberoylanilide hydroxamic acid], for which, in assay [2], the “accessibility of non-coding sites upstream of the COPS7A locus” value is “dose dependent accessibility”. Also, in assay [2] (seven concentrations), the “dosage-dependent change of the chromatin regulatory landscape” value is reported as “increasingly altered regulatory landscapes with higher doses”.
Consider `Cc1nc(-c2cccnc2)sc1C(=O)Nc1ccccc1-c1cn2c(CN3CCOCC3)csc2n1` [SRT1024], for which the “focal concentrations of cells in coembedded UMAP projection, 72 hours versus 24 hours” value in the assay with A549 [3] is listed as “new focal concentrations of cells at 72 hours”.
As for `CN(C)Cc1c(C(=O)NCCOc2ccc(C(=O)NO)cc2)oc2ccccc12` [abexinostat], the acetylated lysine levels result in assay [4] is recorded as “markedly increased acetylated lysine levels”.
Consider `CC(=O)O` [acetate], for which the “shift of pracinostat treated cells along the HDAC inhibitor trajectory” value with A549 [1] and in the assay on MCF7 was “capable of blocking pracinostat treated cells from reaching the end of the HDAC inhibitor trajectory” throughout.
`O=C(O)CC(O)(CC(=O)O)C(=O)O` [citrate]: the “shift of pracinostat treated cells along the HDAC inhibitor trajectory” value in the assay with A549 [1] and with MCF7 was “capable of blocking pracinostat treated cells from reaching the end of the HDAC inhibitor trajectory” throughout.
`C/C(=C\c1csc(C)n1)[C@@H]1C[C@@H]2O[C@@H]2CCC[C@H](C)[C@H](O)[C@@H](C)C(=O)C(C)(C)[C@@H](O)CC(=O)O1` [epothilone A]: the “distinct transcriptional states induced by the same drug (focal enrichments in UMAP)” value with A549 [5] is “associated with three such focal enrichments”.
`C/C(=C\c1csc(C)n1)[C@@H]1C[C@@H]2O[C@]2(C)CCC[C@H](C)[C@H](O)[C@@H](C)C(=O)C(C)(C)[C@@H](O)CC(=O)O1` [epothilone B]: the “distinct transcriptional states induced by the same drug (focal enrichments in UMAP)” value with A549 [5] was “associated with three such focal enrichments”.
For `COc1ccc(C2=N[C@@H](c3ccc(Cl)cc3)[C@@H](c3ccc(Cl)cc3)N2C(=O)N2CCNC(=O)C2)c(OC(C)C)c1` [nutlin-3a], the “drug-specific pathways revealed by gene ontology analysis of differentially expressed genes” value in the assay on A549 [6] is listed as “p53 signaling”.
For the molecule `CCCCc1nc2cc(/C=C/C(=O)NO)ccc2n1CCN(CC)CC` [pracinostat], the “heterogeneity of cell response along the HDAC inhibitor pseudodose trajectory at each dose” value with A549 [5] is listed as “homogeneous responses”. For the same molecule, the acetylated lysine levels entry in assay [4] was “markedly increased acetylated lysine levels”.
For the molecule `CC1(C)O[C@@H]2C[C@H]3[C@@H]4CCC5=CC(=O)C=C[C@]5(C)[C@@]4(F)[C@@H](O)C[C@]3(C)[C@]2(C(=O)CO)O1` [triamcinolone acetonide], the “share of the cells of one small UMAP cluster that were treated with the compound” value in the assay with A549 [5] (cluster 18, Fisher's exact test FDR<1%) turned out to be 95%.

For the origin of these results see US12624350B2, “High-throughput single-nuclei and single-cell libraries and methods of making and of using” (ILLUMINA, INC., priority 2019, dated 2026).
